Measured values as given in patent US8546323B2, “Thrombospondin-1 derived peptides and treatment methods” (priority 2005, dated 2013).
“Also recorded” adds a separate entry of the source. Each block holds one substance with its values, some of them ahead of it.

What was measured:
[1] = system: binding of TSP-1 to macrophages; experiment: cell adhesion assay: macrophage adhesion to TSP-1-coated wells, competition by peptides; type: cell-based, murine; conditions: wells pre-plated with TSP-1 (40 microg./ml); cells mixed with peptide (0.01M) for 30 minutes
Protocol: For the peptide experiment, the cells were mixed in suspension with respective peptide (0.01M) for 30 minutes prior to being introduced to TSP-1 wells.
TSP-1 has multiple potential binding sites for binding macrophages including CD44, IAP, and CD36 (FIG. 1). However there has been no previously established β2-integrin binding motif described in TSP-1. A prior-study using phage sequence assays has reported that the peptide motif D(D/E)(G/L)W (SEQ ID NO: 7) competes with pro-MMP-9 binding to β2-integrin [40]. Through a sequence search of the complete TSP-1 peptide sequence we have determined that TSP-1 has two such putative β2 integrin binding sites: one in TSR-1-(DDGW (SEQ ID NO: 3), a perfect consensus) and another in TSR-2 (DGGW SEQ ID NO: 3), a close consensus with substitution in position 2) as shown in FIG. 2. We have used cell adhesion assay to assess binding of TSP-1 to macrophages (FIG. 6). Using this assay we have been able to show the impact of the D-Xaa-G-W (SEQ ID NO: 5) motif in TSP-1 adhesion to macrophages.

TGF-β1 [2] = biological target: T1, TGF-β1 (Mus musculus, UniProt P04202); experiment: synthetic peptide in tissue culture: TGF-β1 activation; type: cell-based
T1 construct: endogenous in cells; host or cells: Tissue culture
T1 sequence (P04202 30-278 limits assumed): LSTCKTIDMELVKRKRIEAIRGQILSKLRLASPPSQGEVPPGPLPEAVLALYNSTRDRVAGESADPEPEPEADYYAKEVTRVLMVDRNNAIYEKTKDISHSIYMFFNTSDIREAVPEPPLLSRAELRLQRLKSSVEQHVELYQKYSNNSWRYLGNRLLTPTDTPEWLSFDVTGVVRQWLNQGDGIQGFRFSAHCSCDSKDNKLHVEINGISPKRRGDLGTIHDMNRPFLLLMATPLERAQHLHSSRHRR
From the text: (§1) As such we have identified the two active sites in TSP-1 important for both (1) decreasing MMP-9 activity (2) and activating TGF-β1. Using this knowledge, many peptides having plaque stabilizing properties can be designed and synthesized. We designed and synthesized a representative synthetic sequence combining these two active sites: KRFKQDDGWSPWSEW (SEQ ID NO: 10).

atherosclerotic plaque [3] = experiment: peptide infusion (alzet pump) in TSP−/−ApoE−/− mice, atherosclerotic lesion composition; type: in vivo, mouse
From the text: Generally, “stabilized plaque” is evidenced by limited inflammation at the site of the lesion and/or significant fibrosis within the plaque. These features may be observed by a comparison a TSP-1 deficient control system such as the TSP−/− mice described above. Generally, stabilized plaque may be identified by a comparison of fibrosis and inflammation in treated and untreated animals. The balance between fibrosis and inflammation within the plaque has been a well accepted surrogate marker for propensity of plaque to rupture in multiple different animal models.

MMP-9 [4] = experiment: synthetic peptide in tissue culture: inhibition of MMP-9 activation; type: cell-based
From the text: as §1

atherosclerotic plaque [5] = experiment: peptide infusion in apoE−/− mice, atherosclerotic plaque; type: in vivo, mouse
MMP-9 [6] = experiment: transient transfection of RAW macrophage cells, active MMP-9/total MMP-9 ELISA; type: cell-based, mouse; conditions: RAW cells transiently transfected with TSP-1 or TSP-1 mutant; for mutants: fate of the TSP-1 effect
From the text: (§2) (A) There are two putative β2 integrin binding domain in TSR-1 and TSR-2. Note that these two binding domains are adjacent (and overlap by one amino acid) the two binding domains for TGF-β1. We have mutated the two DxGW motifs as shown in the box. […] This effect is abolished by TSP mutants: DM and less so by Mut1. […] This affect is abolished with both TSP-1 mutants Mut1 and Mut2. In summary the DxGW motif in TSR-1 and TSR-2 appear to mediate the effects on of TSP-1 on TGF-β1 activation and MMP-9 inhibition in this cell assay system.
We have shown TSP-1 binding, to macrophages through the same motif and we postulate one potential mechanism for TSP-1 inhibition, of MMP-9 activity may involve displacement of pro-MMP-9 from cell surface (FIG. 7) by competition for binding. To test this hypothesis we generated various mutants of TSP-1 involving either or both potential β2-intergin binding motif in TSP-1 (FIG. 2). […] This effect was reversed by mutation of the TSR-1 motif but less so with mutation of the TSR-2 motif.

TGF-β1 [7] = experiment: transient transfection of RAW macrophage cells, luciferase induction via TGF-β1 promoter responsive element; type: cell-based, mouse; conditions: RAW cells transiently transfected with TSP-1 or TSP-1 mutant; cell lysate luciferase; for mutants: fate of the TSP-1 effect
From the text: as §2
Furthermore, using our mutants we have observed that WSPW (SEQ ID NO: 9) motif in TSR-2 is primarily responsible for TGF-β1 activation by TSP-1.

TGF-β1 [8] = conditions: TSP-1 knockout mouse; cited from earlier work
[9] = 8-25 μg per day for 5 weeks, versus untreated TSP−/− mice

Substance: DDGW
interference with macrophage adhesion to TSP-1 [1]: sufficient to inhibit cell adhesion to TSP-1

Substance: ADGW
interference with macrophage adhesion to TSP-1 [1]: partial interference

Substance: DDGA (DGGW)
interference with macrophage adhesion to TSP-1 [1]: lack of interference

ability to activate TGF-β1 (TGF-β1 [2]): activate TGF-β1
Substance: KRFKQDDGWSPWSEW
inflammation (macrophages) in the intimal lesion (atherosclerotic plaque [3]; [9]): decreased inflammation (macrophages) in the intimal lesion
lipid deposition within the intimal lesions (atherosclerotic plaque [3]; [9]): decreased lipid deposition within the intimal lesions
matrix (collagen and elastin) deposition within the lesion (atherosclerotic plaque [3]; [9]): increased matrix (as measured by collagen and elastin) deposition within the lesion
rescue of the phenotype of TSP−/−ApoE−/− mice (decrease macrophages, increase matrix within the lesion) (atherosclerotic plaque [3]; alzet infusion pump, 8-25 μg per day for 5 weeks): sufficient to rescue the phenotype
plaque stabilizing activity (atherosclerotic plaque [3]; mouse model of atherosclerosis): active in stabilizing plaque
ability to inhibit activation of MMP-9 (MMP-9 [4]): inhibit activation of MMP-9
plaque stabilization in presence of endogenous TSP-1 (atherosclerotic plaque [5]): beneficial effect

Substance: TSP-1: matricellular protein thrombospondin-1, a trimer with a chain molecular mass of 150 kda
MMP-9 activity (active MMP-9/total MMP-9), conversion of pro-MMP-9 to the active form (MMP-9 [6]): decreases MMP-9 activity; also recorded: decreased conversion of pro-MPP-9 to the active form
TGF-β1 activity (TGF-β1 [7]): increases TGF-β1 activity; also recorded: activates TGF-β1

Substance: KRFK
rescue of TSP-1 knockout phenotype (localized alveolar inflammation and chronic pneumonia) (TGF-β1 [8]): rescues this phenotype
